Reference: patent publication US20100160445A1, “Synergistic Mixtures of OPP and DGH” (priority 2002, published 2010)
Structures can show the parent of a compound that is named as a salt.

Test system: mildew
Assay: Mildew resistance testing of caulking adhesives, ASTM D3273
Format: cell-based
Method: Testing was also completed on Franklin International Caulking Adhesives. The testing that was conducted was done in accordance with test ASTM D3273 as set forth in the Annual Book of ASTM Standards, Vol 06.01 which is hereby incorporated by reference. This is a standard test method for mildew known to those skilled in the art. When performing this test OPP was not tested by itself as it is known in the art of coatings that significant amounts of OPP are required, typically in the range of 2,000 to 10,000 ppm which is supported by EPA Registration No.'s 39967-11-67869 and EPA Registration No. 464-78-67869. An example of the significant amounts of OPP needed can also be seen in the OPP results in the paint testing shown above.
• 10=No Mildew Growth, Excellent Mildew Resistance • 7-9=Trace Mildew Growth, Very Good Mildew Resistance • 6-5=Moderate Mildew Growth, Poor Mildew Resistance • 4-0=Heavy Mildew Growth, Failed

[1] = Titebond Professional Drywall Adhesive, 500 ppm
[2] = Titebond Professional Drywall Adhesive, 1000 ppm
[3] = Titebond Professional Drywall Adhesive, 1500 ppm
[4] = Titebond Professional Drywall Adhesive, 2000 ppm
[5] = Titebond Professional Tub Surround Adhesive, 500 ppm
[6] = Titebond Professional Tub Surround Adhesive, 1000 ppm
[7] = Titebond Professional Tub Surround Adhesive, 1500 ppm
[8] = Titebond Professional Tub Surround Adhesive, 2000 ppm
[9] = Titebond Solvent Free Construction Adhesive, 500 ppm
[10] = Titebond Solvent Free Construction Adhesive, 1000 ppm
[11] = Titebond Solvent Free Construction Adhesive, 1500 ppm
[12] = Titebond Solvent Free Construction Adhesive, 2000 ppm
[13] = Titebond Solvent Free Fast Grab FRP Adhesive, 500 ppm
[14] = Titebond Solvent Free Fast Grab FRP Adhesive, 1000 ppm
[15] = Titebond Solvent Free Fast Grab FRP Adhesive, 1500 ppm
[16] = Titebond Solvent Free Fast Grab FRP Adhesive, 2000 ppm
[17] = Titebond Solvent Free Subfloor Adhesive, 500 ppm
[18] = Titebond Solvent Free Subfloor Adhesive, 1000 ppm
[19] = Titebond Solvent Free Subfloor Adhesive, 1500 ppm
[20] = Titebond Solvent Free Subfloor Adhesive, 2000 ppm

Q: Which results are given for `CCCCCCCCCCCCNC(=N)N` [DGH, Dodecylguanidine Hydrochloride]?
A: Mildew Results 7 Days [1]: 10; Mildew Results 14 Days [1]: 10; Mildew Results 21 Days [1]: 10; Mildew Results 28 Days [1]: 10; Mildew Results 7 Days [2]: 10; Mildew Results 14 Days [2]: 10; Mildew Results 21 Days [2]: 10; Mildew Results 28 Days [2]: 10; Mildew Results 7 Days [3]: 10; Mildew Results 14 Days [3]: 10; Mildew Results 21 Days [3]: 10; Mildew Results 28 Days [3]: 10; Mildew Results 7 Days [4]: 10; Mildew Results 14 Days [4]: 10; Mildew Results 21 Days [4]: 10; Mildew Results 28 Days [4]: 10; Mildew Results 7 Days [5]: 10; Mildew Results 14 Days [5]: 10; Mildew Results 21 Days [5]: 10; Mildew Results 28 Days [5]: 10; Mildew Results 7 Days [6]: 10; Mildew Results 14 Days [6]: 10; Mildew Results 21 Days [6]: 10; Mildew Results 28 Days [6]: 10; Mildew Results 7 Days [7]: 10; Mildew Results 14 Days [7]: 10; Mildew Results 21 Days [7]: 10; Mildew Results 28 Days [7]: 10; Mildew Results 7 Days [8]: 10; Mildew Results 14 Days [8]: 10; Mildew Results 21 Days [8]: 10; Mildew Results 28 Days [8]: 10; Mildew Results 7 Days [9]: 10; Mildew Results 14 Days [9]: 10; Mildew Results 21 Days [9]: 10; Mildew Results 28 Days [9]: 10; Mildew Results 7 Days [10]: 10; Mildew Results 14 Days [10]: 10; Mildew Results 21 Days [10]: 10; Mildew Results 28 Days [10]: 10; Mildew Results 7 Days [11]: 10; Mildew Results 14 Days [11]: 10; Mildew Results 21 Days [11]: 10; Mildew Results 28 Days [11]: 10; Mildew Results 7 Days [12]: 10; Mildew Results 14 Days [12]: 10; Mildew Results 21 Days [12]: 10; Mildew Results 28 Days [12]: 10; Mildew Results 7 Days [13]: 10; Mildew Results 14 Days [13]: 10; Mildew Results 21 Days [13]: 0; Mildew Results 28 Days [13]: 0; Mildew Results 7 Days [14]: 10; Mildew Results 14 Days [14]: 10; Mildew Results 21 Days [14]: 0; Mildew Results 28 Days [14]: 0; Mildew Results 7 Days [15]: 10; Mildew Results 14 Days [15]: 10; Mildew Results 21 Days [15]: 10; Mildew Results 28 Days [15]: 9; Mildew Results 7 Days [16]: 10; Mildew Results 14 Days [16]: 10; Mildew Results 21 Days [16]: 10; Mildew Results 28 Days [16]: 10; Mildew Results 7 Days [17]: 7; Mildew Results 14 Days [17]: 7; Mildew Results 21 Days [17]: 0; Mildew Results 28 Days [17]: 0; Mildew Results 7 Days [18]: 7; Mildew Results 14 Days [18]: 7; Mildew Results 21 Days [18]: 0; Mildew Results 28 Days [18]: 0; Mildew Results 7 Days [19]: 7; Mildew Results 14 Days [19]: 7; Mildew Results 21 Days [19]: 0; Mildew Results 28 Days [19]: 0; Mildew Results 7 Days [20]: 10; Mildew Results 14 Days [20]: 10; Mildew Results 21 Days [20]: 10; Mildew Results 28 Days [20]: 10
